{"source": "patent US5430058A", "about": "“Pharmaceutical compositions comprising hydroxamate derivatives for iron removal” (Yeda Research and Development Co. Ltd., priority 1993, dated 1995)", "key": {"[1]": {"test_system": "Plasmodium falciparum strain ItG2G1", "experiment": "Antimalarial activity in various strains, ItG2G1", "format": "cell-based", "description": "(§1) f. Parasite cultures. The P. falciparum strains used in the experiments: ItG2G1 (Brazil, provided by Dr. L. H. Miller), D6 (W. African, provided by Dr. A. J. M. Oduola) FCR-3 (Gambian, provided by Dr. J. B. Jensen) and W2 (Indochina, provided by Dr. A. J. M. Oduola), were grown in culture flasks of human erythrocytes by a modified version of Trager and Jensen's method as described by Silfen et al. ((1988) Biochem. Pharmacol. 37: 4269-4276)).\n(§2) g. Bioassay of iron carrier antimalarial activity. […] After the indicated time of incubation with drug and either previous to or after washing 3 times with 100 volumes growth medium, the cells were supplemented with 6 μCi of either [^3 H]-hypoxanthine or [^3 H]-Ileu (Amersham, England) per well and parasite growth assessed after 24-48 hours by harvesting the labelled cells onto glass-fiber filters (Tamar, Inc. Jerusalem) and counting of the radioactivity.\n(§3) It is clear that the efficacy of the agents is primarily correlated with the respective octanol/saline partition coefficient or the hydrophobicity of the amino acid side chain, and only secondarily with their iron binding efficiencies, which are relatively high for all the agents. […] The antimalarial activity of the various chelators was assessed over a 24 hr period of exposure on infected cells (trophozoite stage of P. falciparum) as described in method (g). […]"}, "[2]": {"test_system": "human HT29 colonic carcinoma cells", "experiment": "Proliferation of mammalian cells, HT29", "format": "cell-based", "details": "for Proliferation (nucleic acid synthesis): 24 hours exposure, [3H]-hypoxanthine; for Proliferation (protein synthesis): [3H]ileu incorporation, not shown", "description": "(§4) The possibility that the reversed siderophores might affect mammalian cells in culture was assessed in conditions identical to those used for parasites in cultures. […] Nucleic acid synthesis was measured in cultures of mouse NIH 3T3 fibroblasts and human HT29 colonic carcinoma cells in the presence of either SF1-ileu (open circles), desferrioxamine (DFO) (solid triangle) in DMSO or DMSO alone (Control) (<1% final) (open triangles) at same concentrations. Cultures at confluence were exposed to chelators for 24 hours; the first 3 hours without radiolabel and 21 hours with 6 μCi/ml of [^3 H]-hypoxanthine. Extracellular hypoxanthine was removed by several washes with PBS and the cells were treated with 5% TCA for 15 minutes at 5° C. and solubilized with hot 2.5% SDS. Samples were taken for counting of radioactivity and measurement of protein (BCA, Pierce). Data are given as dpm/μg protein and SD (duplicate samples)."}, "[3]": {"experiment": "Relative iron(III) binding efficiency by competition with EDTA", "format": "physicochemical", "details": "for Relative binding: Table 1, DFO = 100, competition with EDTA in aqueous MeOH; for rel. Fe binding (b): Table 2, relative to DFO = 1.16, 0.75 mM hydroxamate, 0.15 mM EDTA, 0.15 mM Fe3+ in aqueous methanol; for Pcoeff*Fe binding (a*b): product of relative partition coefficient and relative iron(III) binding", "description": "c. The relative binding efficiencies of the reversed siderophores (0.75 mM reversed siderophore and 0.15 mM Fe^3+ in aqueous MeOH (MeOH-0.1N NaOAc) were incubated with EDTA (0.15 mM). After equilibration overnight, the fraction of siderophore- Fe^3+ complex present was determined at 430 nm.\nThe values for Pcoeff of free RSF ileun2 (the same as SF1ileu) and of leun2 and their respective iron(III) complexes were similar (not shown)."}, "[4]": {"test_system": "synchronized cultures of trophozoites (P. falciparum)", "experiment": "Time dependence of parasite growth inhibition, trophozoites", "format": "cell-based, Plasmodium falciparum", "details": "for Inhibitory effect, in words: trophozoites; for inhibition at 10 µg/mL: Plasmodium falciparum, read-out: Inhibition of parasite growth", "description": "(§5) g. Bioassay of iron carrier antimalarial activity. The antimalarial activity was assayed by adding the compounds from concentrated stock solutions (in DMSO) to microcultures (24 wells, Costar) containing infected red cells (2.5% hematocrit and 2% parasitemia). The cultures were usually synchronized (4-7 hrs. windows) by incubation in 300 mM Ala, 10 mM TRIS-Cl in conjunction with gelatin flotation and used either at the trophozoite (1-2% parasitemia) or at the ring stage (4-6% parasitemia) of the erythrocyctic cycle. After the indicated time of incubation with drug and either previous to or after washing 3 times with 100 volumes growth medium, the cells were supplemented with 6 μCi of either [^3 H]-hypoxanthine or [^3 H]-Ileu (Amersham, England) per well and parasite growth assessed after 24-48 hours by harvesting the labelled cells onto glass-fiber filters (Tamar, Inc. Jerusalem) and counting of the radioactivity.\n(§6) To study the growth stage of parasites most sensitive to inhibition, the time dependence of the inhibitory effect of SF1-ileu (10 μg/ml) vis a vis that of DFO (80 μg/ml) was assessed both on synchronized cultures of rings and of cultures of trophozoites. The cells were exposed to the […], the cells were washed from extracellular drug and assessed for [^3 H]-hypoxanthine incorporation after the last sample completed the 4 hours incubation period with drug."}, "[5]": {"test_system": "Plasmodium falciparum strain W2", "experiment": "Antimalarial activity in various strains, W2", "format": "cell-based", "description": "as §1, §2, §3"}, "[6]": {"test_system": "Plasmodium falciparum strain FCR3", "experiment": "Antimalarial activity in various strains, FCR3", "format": "cell-based", "description": "as §1, §2, §3"}, "[7]": {"test_system": "trophozoites of P. falciparum, strain ItG2G1", "experiment": "Antimalarial activity (Table 1), [3H]hypoxanthine incorporation", "format": "cell-based", "details": "Plasmodium falciparum", "description": "as §1, §5\nThe antimalarial activity of the different chelators was initially evaluated on cultures of trophozoites which were exposed for 24 hours to different concentrations of chelators. Following that period, [^3 H]-hypoxanthine or [^3 H]-Ileu were added and 24 hours later the parasitemia and incorporation of label into macromolecular material was determined."}, "[8]": {"test_system": "Plasmodium falciparum strain D6", "experiment": "Antimalarial activity in various strains, D6", "format": "cell-based", "description": "as §1, §2, §3"}, "[9]": {"test_system": "trophozoites of P. falciparum", "experiment": "Antimalarial activity (Table 2), [3H]-hypoxanthine incorporation", "format": "cell-based, Plasmodium falciparum", "details": "40 h", "description": "as §5, with “radioactivity. […]” for “radioactivity.”"}, "[10]": {"test_system": "synchronized cultures of rings (P. falciparum)", "experiment": "Time dependence of parasite growth inhibition, rings", "format": "cell-based, Plasmodium falciparum", "details": "for Inhibitory effect, in words: rings; for inhibition at 10 µg/mL: Plasmodium falciparum, read-out: Inhibition of parasite growth", "description": "as §5, §6"}, "[11]": {"test_system": "mouse NIH 3T3 fibroblasts", "experiment": "Proliferation of mammalian cells, NIH 3T3", "format": "cell-based", "details": "for Proliferation (nucleic acid synthesis): 24 hours exposure, [3H]-hypoxanthine; for Proliferation (protein synthesis): [3H]ileu incorporation, not shown", "description": "as §4"}, "[12]": {"details": "0.5 hr incubation, SF1-ileu 10 μg/ml"}}, "note": "Read-outs that look alike come from different tables or passages of the source.", "data": [{"smiles": "CC(=O)N(O)CCCCCNC(=O)CCC(=O)N(O)CCCCCNC(=O)CCC(=O)N(O)CCCCCN", "note": "[DFO, desferrioxamine B, reference compound]", "values": [{"measurement": "IC50", "setting": "[1]; strain ItG2G1 (chloroquine-sensitive), 48 hour exposure, trophozoites, read-out: IC50", "result": "35 ± 3", "unit": "µg/mL"}, {"measurement": "Proliferation (nucleic acid synthesis)", "setting": "[2]", "result": "neither SF1-ileu nor DFO affected the proliferation"}, {"measurement": "Proliferation (protein synthesis)", "setting": "[2]", "result": "neither SF1-ileu nor DFO affected the proliferation"}, {"measurement": "Relative binding", "setting": "[3]", "result": 100}, {"measurement": "rel. Fe binding (b)", "setting": "[3]", "result": 1.16}, {"measurement": "Pcoeff*Fe binding (a*b)", "setting": "[3]", "result": 0.065}, {"measurement": "Inhibitory effect, in words", "setting": "[4]; DFO 80 μg/ml, 6 hrs exposure", "result": "inhibitory effects were dismal"}, {"measurement": "Inhibitory effect, in words", "setting": "[4]; DFO 80 μg/ml, 20 hrs exposure", "result": "substantial inhibition"}, {"measurement": "IC50", "setting": "[5]; strain W2 (chloroquine-resistant), 48 hour exposure, trophozoites, read-out: IC50", "result": "31 ± 6", "unit": "µg/mL"}, {"measurement": "IC50", "setting": "[6]; strain FCR3 (chloroquine-resistant), 48 hour exposure, trophozoites, read-out: IC50", "result": "32 ± 7", "unit": "µg/mL"}, {"measurement": "IC50", "setting": "[7]; 48 hours exposure, strain ItG2G1 trophozoites, read-out: IC50", "result": 30, "unit": "µg/mL"}, {"measurement": "IC50", "setting": "[8]; strain D6 (chloroquine-sensitive), 48 hour exposure, trophozoites, read-out: IC50", "result": "40 ± 9", "unit": "µg/mL"}, {"measurement": "IC50 (c)", "setting": "[9]", "result": "40000 ± 8000", "unit": "nM"}, {"measurement": "Inhibitory effect, in words", "setting": "[10]; DFO 80 μg/ml, 6 hrs exposure", "result": "inhibitory effects were dismal"}, {"measurement": "Inhibitory effect, in words", "setting": "[10]; DFO 80 μg/ml, 20 hrs exposure", "result": "substantial inhibition"}, {"measurement": "Proliferation (nucleic acid synthesis)", "setting": "[11]", "result": "neither SF1-ileu nor DFO affected the proliferation"}, {"measurement": "Proliferation (protein synthesis)", "setting": "[11]", "result": "neither SF1-ileu nor DFO affected the proliferation"}]}, {"smiles": "CC[C@H](C)[C@H](NC(=O)CCOCC(CC)(COCCC(=O)N[C@H](C(=O)N(C)O)[C@@H](C)CC)COCCC(=O)N[C@H](C(=O)N(C)O)[C@@H](C)CC)C(=O)N(C)O", "note": "[SF1-ileu]", "values": [{"measurement": "IC50", "setting": "[1]; 48 h", "result": "5 ± 2", "unit": "µg/mL"}, {"measurement": "Proliferation (nucleic acid synthesis)", "setting": "[2]", "result": "neither SF1-ileu nor DFO affected the proliferation"}, {"measurement": "Proliferation (protein synthesis)", "setting": "[2]", "result": "neither SF1-ileu nor DFO affected the proliferation"}, {"measurement": "Relative binding", "setting": "[3]", "result": 25}, {"measurement": "rel. Fe binding (b)", "setting": "[3]", "result": 0.29}, {"measurement": "Pcoeff*Fe binding (a*b)", "setting": "[3]", "result": 2.4}, {"measurement": "inhibition at 10 µg/mL", "setting": "[4]; 2 h", "result": "~90", "unit": "%"}, {"measurement": "inhibition at 10 µg/mL", "setting": "[4]; 20 h", "result": "> 95", "unit": "%"}, {"measurement": "Inhibitory effect, in words", "setting": "[4]; [12]", "result": "major inhibitory effects"}, {"measurement": "IC50", "setting": "[5]; W2, 48 h", "result": "4 ± 1", "unit": "µg/mL"}, {"measurement": "IC50", "setting": "[6]; FCR3, 48 h", "result": "3 ± 1", "unit": "µg/mL"}, {"measurement": "IC50", "setting": "[7]; 48 h", "result": 2, "unit": "µg/mL"}, {"measurement": "IC50", "setting": "[8]; D6, 48 h", "result": "6 ± 2", "unit": "µg/mL"}, {"measurement": "IC50", "setting": "[9]; Plasmodium falciparum, read-out: IC50 (c)", "result": "3000 ± 2000", "unit": "nM"}, {"measurement": "inhibition at 10 µg/mL", "setting": "[10]; 2 h", "result": "~70", "unit": "%"}, {"measurement": "inhibition at 10 µg/mL", "setting": "[10]; 20 h", "result": "> 95", "unit": "%"}, {"measurement": "Inhibitory effect, in words", "setting": "[10]; [12]", "result": "major inhibitory effects"}, {"measurement": "Proliferation (nucleic acid synthesis)", "setting": "[11]", "result": "neither SF1-ileu nor DFO affected the proliferation"}, {"measurement": "Proliferation (protein synthesis)", "setting": "[11]", "result": "neither SF1-ileu nor DFO affected the proliferation"}]}]}
